The values below come from patent US20060234909A1, “Compositions and methods for increasing drug efficiency” (priority 2003, published 2006).

In general, EC50 refers to the concentration giving half of the maximal effect.

In data set [1] the test system is MCF-7 cells. The following applies: read-out: MCF7 (EC50 Ave) SA; MCF7, SA (soft agar).
In data set [2] the test system is MCF-7 breast carcinoma. The experiment in a line: Cytotoxicity assay (monolayer), MCF-7.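 Note: cells treated 72 h with 6-8 compound doses versus DMSO vehicle controls, EC50 fitted by 4-parameter dose-response curves, averaged across all tests and lots.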 The format is cell-based. To be noted: MCF7, ML (monolayer); read-out: MCF7 (EC50 Ave) ML.
In data set [3] the test system is tubulin. The experiment in a line: Fluorescence-based tubulin polymerization assay (MPA; enhancement for paclitaxel, inhibition for vinblastine). The format is biochemical. The source says: Drug-linker constructs may further be screened using functional assays predictive of biological activity. […] Tubulin assembly or inhibition thereof may be monitored by fluorescence using the CytoDYNAMIX Screen™ 10 kit available from Cytoskeleton (1830 S. Acoma St., Denver, Colo.). […] Emission is monitored at 405 nm with excitation at 360 nm. […] Tubulin assembly or inhibition may also be monitored by light scattering which is approximated by the apparent absorption at 350 nm. For paclitaxel drug conjugates BSA is employed to prevent aggregation and glycerol, which is a tubulin polymerization enhancer, is omitted from the kit to increase the signal to noise ratio.
The assay kit (#BK011) was purchased from Cytoskeleton (Denver, Colo.). The assays were carried out according to the manufacturer's instructions, except that 1 mg/ml BSA (Sigma #A3059) was included in all assays. […] Parent drugs and conjugates were tested at 0.75, 1.5, 3 and 10 micromolar final concentration and results represent a comparison of conjugate and parent drug curves obtained from the linear range of the dose responses.
(±SD) represent the average of all tests carried out for all lots of a given compound.

Data set [4] has as its system HT-29 cells. The following applies: read-out: HT29 (EC50 Ave) SA; HT29, SA (soft agar).
The target of data set [5] is T1, Human Src (Homo sapiens, UniProt P12931).
T1 construct: purchased Upstate (Charlottesville, Va.) 14-326
As to the kind of experiment: Src kinase assay (PKLight ATP utilization, substrate phosphorylation as % of parent peptide). In kind it is biochemical. Here is the method:
Another test may involve monitoring the consumption of ATP. For example, ATP concentrations at time 0 or after 4 hour incubation may be monitored by luciferase reaction (PKLight kit obtained from Cambrex Corporation, One Meadowlands Plaza, East Rutherford, N.J. 07073), which generate a luminescence readout in the presence of ATP. Assays are initiated by mixing a kinase and a peptide in the presence of 40 μM ATP. After 4 hour of incubation at 30° C., PKLight reagent is added and mixed well, and luminescence readout measured. The rate of peptide phosphorylation is then directly related to the rate of decrease in the observed luminescence. Based on the first test, linkers of appropriate lengths and peptides with an effective amount of kinase activity which may be expected to be retained in the drug conjugate may be found.
Human Src (#14-326) and Akt (#14-276) kinases were purchased from Upstate (Charlottesville, Va.). Kinase reactions were carried out in 50 μl kinase reaction cocktail (25 mM Tris-HCl, pH 7.5, 5 μM β-glycerophosphate, 2 mM DTT, 0.1 mM Na3VO4, 10 mM MgCl2, 1 mg/ml BSA, […], 0.5 to 1.0 units enzyme). Substrates (peptide or drug-peptide conjugate in […]) were added (25, 50 and 100 μM) and the reaction was incubated for 2-5 hours at 30° C. PKLight reagent (23 μl) (Cambrex BioSciences, Rockland, Me.) was mixed with […] of the above kinase reaction and ATP utilization relative to no substrate and no ATP controls was determined by measuring luminescence with a SpectraMax Gemini EM plate reader (Molecular Devices, Sunnyvale, Calif.). Peptide substrates for Src and Akt have been described. For examples, see Lou et al. Letters in Peptide Science, 2, 289-296 (1995); Lou et al. Bioorganic & Medicinal Chemistry, 4, 677-682 (1996); Alessi et al. FEBS Letters, 399, 333-338 (1996). Substrate phosphorylation potential was determined from the linear portion of the substrate concentration dose response as a percentage of the activity observed with the parent peptide used for drug conjugation.

Data set [6] has as its system HUVEC. As to the kind of experiment: Cytotoxicity assay (monolayer), HUVEC. To be noted: ML (monolayer), read-out: HUVEC (EC50 Ave) ML. In kind it is cell-based.
Data set [7] relates to HT-29 colorectal carcinoma. The experiment in a line: Cytotoxicity assay (monolayer), HT-29.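 Note: monolayer cultures tested in triplicate, compound exposure for three days against DMSO vehicle controls, EC50 fitted from dose-response curves and averaged across all tests and lots.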 In kind it is cell-based. The following applies: HT29, ML (monolayer); read-out: HT29 (EC50 Ave) ML.
Data set [8] concerns Normal human foreskin fibroblasts (HFF). The following applies: read-out: HFF (EC50 Ave) ML; HFF, ML (monolayer).

Primed or numbered codes have the meaning given here. * marks the point of attachment. PEG(13)″ = PEG(13) linker; Piv = CC(C)(C)C(=O)* A value given as a limit tells only on which side of the number the result lay.

“Pv-YIFGSFR-PEG(13)-10Ca-PXL (Piv-YIFGSFR-{PEG(13)″-10Ca‑PXL}; also: TFA salt)”: the EC50 in data set [1] was 20 to 100 nM; in data set [2], over 100 nM; in data set [4], over 100 nM; in data set [6], over 100 nM; in data set [7], over 100 nM; in data set [8], over 100 nM. Also, the “Ave. MPA Act.” value in data set [3] is listed as “A (A<50)”. In data set [5], the “Average src kinase activity” value is listed as “Zero”.
On to “Ac-EYIyGSFK-PEG(13)-10Ca-PXL (EYIYGSFK; not fully specified)”, for which the EC50 in data set [1], in data set [2], in data set [4], in data set [6], in data set [7] and in data set [8] was over 100 nM each time. In addition, the “Ave. MPA Act.” value in data set [3] is listed as “C (C>80)”. Moreover, the “Average src kinase activity” value in data set [5] is listed as “Zero”.
For `CC(=O)O[C@@]12CO[C@@H]1C[C@H](O)[C@@]1(C)C(=O)[C@H](OC(=O)CCCCCCNC(=O)OCc3ccccc3)C3=C(C)[C@@H](OC(=O)[C@H](O)[C@@H](NC(=O)c4ccccc4)c4ccccc4)C[C@@](O)([C@@H](OC(=O)c4ccccc4)[C@H]21)C3(C)C` [PXL-10Es-Alk(6)-NH(Z)], the EC50 in data set [1], in data set [2], in data set [4], in data set [6], in data set [7] and in data set [8] was under 20 nM each time. Further, in data set [3], the “Ave. MPA Act.” value is “A (A<50)”.
`CC(=O)O[C@H]1C(=O)[C@]2(C)[C@@H](OC(=O)CCCCCN)C[C@H]3OC[C@@]3(OC(C)=O)[C@H]2[C@H](OC(=O)c2ccccc2)[C@]2(O)C[C@H](OC(=O)[C@H](O)[C@@H](NC(=O)c3ccccc3)c3ccccc3)C(C)=C1C2(C)C` [PXL-7Es-ALK(5)-NH2]: the EC50 in data set [1] is under 20 nM; in data set [2] it was 100 to 1000 nM; in data set [4], under 20 nM; in data set [6] it was under 20 nM; in data set [7] it was 100 to 1000 nM; in data set [8] it was under 20 nM. The “Ave. MPA Act.” value in data set [3] is given as “A (A<50)”.
Consider `CC[C@]1(O)C[C@@H]2CN(CCc3c([nH]c4ccccc34)[C@@](C(=O)OC)(c3cc4c(cc3OC)N(C)[C@H]3[C@@](O)(C(=O)NCCCCCCCCCCCCNC(=O)OC(C)(C)C)[C@H](O)[C@]5(CC)C=CCN6CC[C@]43[C@@H]65)C2)C1` [VBL-3Am-ALK(12)-NH(B)], for which the EC50 in data set [1] was under 20 nM; in data set [2], 20 to 100 nM; in data set [4] it was under 20 nM; in data set [6], under 20 nM; in data set [7] it was 100 to 1000 nM; in data set [8], under 20 nM. In data set [3], the “Ave. MPA Act.” value is listed as “A (A<50)”.
With `CC(=O)O[C@@]12CO[C@@H]1C[C@H](O)[C@@]1(C)C(=O)[C@H](OC(=O)CCCCCN)C3=C(C)[C@@H](OC(=O)[C@H](O)[C@@H](NC(=O)c4ccccc4)c4ccccc4)C[C@@](O)([C@@H](OC(=O)c4ccccc4)[C@H]21)C3(C)C` [PXL-10Es-ALK(5)-NH2], the EC50 in data set [1], in data set [2], in data set [4], in data set [6], in data set [7] and in data set [8] was under 20 nM throughout. Besides, the “Ave. MPA Act.” value in data set [3] is “B (B=50-80)”.
With `CC[C@]1(O)C[C@@H]2CN(CCc3c([nH]c4ccccc34)[C@@](C(=O)OC)(c3cc4c(cc3OC)N(C)[C@H]3[C@@](O)(C(=O)NN)[C@H](O)[C@]5(CC)C=CCN6CC[C@]43[C@@H]65)C2)C1` [Desacetylvinblastine monohydrazine], the EC50 in data set [1], in data set [2], in data set [4], in data set [6], in data set [7] and in data set [8] was under 20 nM throughout. Further, in data set [3], the “Ave. MPA Act.” value was “C (C>80)”.
As for `CC[C@]1(O)C[C@@H]2CN(CCc3c([nH]c4ccccc34)[C@@](C(=O)OC)(c3cc4c(cc3OC)N(C)[C@H]3[C@@](O)(C(=O)OC)[C@H](O)[C@]5(CC)C=CCN6CC[C@]43[C@@H]65)C2)C1` [Desacetyl vinblastine], the EC50 in data set [1], in data set [2], in data set [4], in data set [6], in data set [7] and in data set [8] was under 20 nM in each case. The “Ave. MPA Act.” value in data set [3] was “C (C>80)”.
`CC[C@]1(O)C[C@@H]2CN(CCc3c([nH]c4ccccc34)[C@@](C(=O)OC)(c3cc4c(cc3OC)N(C)[C@H]3[C@@](O)(C(=O)NCCCCCCCCCCCCN)[C@H](O)[C@]5(CC)C=CCN6CC[C@]43[C@@H]65)C2)C1` [VBL-3Am-ALK(12)-NH2]: the EC50 in data set [1], in data set [2], in data set [4], in data set [6], in data set [7] and in data set [8] was under 20 nM each time. The “Ave. MPA Act.” value in data set [3] was “B (B=50-80)”.
Consider `CC[C@]1(O)C[C@@H]2CN(CCc3c([nH]c4ccccc34)[C@@](C(=O)OC)(c3cc4c(cc3OC)N(C)[C@H]3[C@@](O)(C(=O)NCCCCCCN)[C@H](O)[C@]5(CC)C=CCN6CC[C@]43[C@@H]65)C2)C1` [VBL-3Am-ALK(6)-NH2], for which the EC50 in data set [1], in data set [2], in data set [4], in data set [6], in data set [7] and in data set [8] was under 20 nM each time. The “Ave. MPA Act.” value in data set [3] is reported as “C (C>80)”.
With `C=CCOC(=O)O[C@@H](C(=O)O[C@H]1C[C@@]2(O)[C@@H](OC(=O)c3ccccc3)[C@@H]3[C@]4(OC(C)=O)CO[C@@H]4C[C@H](O)[C@@]3(C)C(=O)[C@H](OC(C)=O)C(=C1C)C2(C)C)[C@@H](NC(=O)c1ccccc1)c1ccccc1` [PXL-2′Alloc], the half-maximal effective concentration (EC50) in data set [1], in data set [2], in data set [4], in data set [6], in data set [7] and in data set [8] was under 20 nM each time. Moreover, the “Ave. MPA Act.” value in data set [3] was “A (A<50)”.
On to `CC[C@]1(O)CC2CN(CCc3c([nH]c4ccccc34)[C@@](C(=O)OC)(c3cc4c(cc3OC)N(C)[C@H]3C(O)(C(=O)NCCOCCOCCOCCN)[C@H](O)[C@]5(CC)C=CCN6CCC43[C@@H]65)C2)C1` (stereo partly drawn) [VBL-3Am-PEG(11)-NH2], for which the concentration for a half-maximal effect (EC50) in data set [1] was under 20 nM; in data set [2] it was 20 to 100 nM; in data set [4], under 20 nM; in data set [6], under 20 nM; in data set [7] it was 20 to 100 nM; in data set [8], under 20 nM. Besides, in data set [3], the “Ave. MPA Act.” value is given as “B (B=50-80)”.
Consider `CC(=O)O[C@H]1C(=O)[C@]2(C)[C@@H](OC(=O)NCCCCCCN)C[C@H]3OC[C@@]3(OC(C)=O)[C@H]2[C@H](OC(=O)c2ccccc2)[C@]2(O)C[C@H](OC(=O)[C@H](O)[C@@H](NC(=O)c3ccccc3)c3ccccc3)C(C)=C1C2(C)C` [PXL-7Ca-ALK(6)-NH2], for which the EC50 in data set [1] was under 20 nM; in data set [2], 100 to 1000 nM; in data set [4] it was under 20 nM; in data set [6] it was under 20 nM; in data set [7], under 20 nM; in data set [8], under 20 nM. The “Ave. MPA Act.” value in data set [3] is recorded as “A (A<50)”.
